Source: article PMC11234452, “HydrogelFinder: A Foundation Model for Efficient Self‐Assembling Peptide Discovery Guided by Non‐Peptidal Small Molecules” (Advanced Science, 2024)
Residues, ends and D or L forms follow the SMILES beside them.

What was measured:
Format in all cases: physicochemical
[1] = Hydrogelation test, inverted tube method; details: for pH (of hydrogelation) / Conc. (hydrogelation concentration): 37 °C overnight; for Conc. (hydrogelation concentration): pH adjusted with NaOH or HCl
Experimental: We subsequently evaluated their gelation capability (Figure S2, Supporting Information). After purification by HPLC, the obtained compounds were dissolved in water and the pH of the solution was adjusted to trigger self‐assembly and hydrogelation.
Observing gel behavior in an inverted test tube is a rapid and facile approach to determine whether a dissolved peptide formed a gel.
All compounds were placed in a glass tube (diameter 10 mm) and first dissolved in D.I water, sonicated for 5 min and putted on ice for 30 min. Then added 2x PBS buffer (5.4 mM KCl, 20 mM Na2HPO4, 4 mM KH2PO4) or D.I water to reach the final concentration of 1.0 wt%. pH was adjusted with NaOH or HCl. The solutions were stored in 37 °C incubator overnight. Gelation was confirmed by the inverting method.

[2] = Oscillatory rheology, dynamic time sweep; details: 37 °C, 15 mm parallel geometry, gap 0.5 mm, G′ consistently higher than G″
Experimental: To further explore the gelation properties and self‐assembly behavior of the candidate self‐assembling molecules, we carried out a series of biophysical characterization experiments.
All rheological experiments were performed on an Anton Parr equipped with a steel 15 mm parallel geometry tool. […] To avoid dehydration, a layer of silicon oil was applied around the edge of the sample at the start of the measurement. Dynamic strain sweep experiments were performed to ensure that the time‐sweep data was collected in the linear regime of strain. The dynamic strain sweep was performed varying the strain from 0.1 to 100% at a constant frequency (6 rad s^−1).

[3] = TEM of hydrogel matrix, nanofiber width; details: uranyl formate stain, ImageJ, 30 measurements per picture
Experimental: These nanofibers were entangled with one another, forming a 3D‐network that comprised the hydrogel matrix (Figure 4B).
The sample was prepared by placing a drop of peptide solution on a 200‐mesh copper grid (Electron Microscopy China) and allowed to stand for 1.0 min, then blotted with filter paper. Subsequently a drop of 1.0% Uranyl Formate was placed on the grid and allowed to stand for 1–2 min, then blotted with a piece of filter paper and left to air dry. Images were taken with a JEOL JEM‐2100Plus at 80 kV accelerating voltage. By calculating the width of peptide, The image J was used to measure 30 times for 1 TEM picture, and to gather statistics with frequency.^[ [26] ^]

| Compound | pH (of hydrogelation) ([1]; in water) | Conc. (hydrogelation concentration) ([1]; in water) [wt%] | storage modulus (G′) at equilibrium [2] | nanofiber width [3] | pH (of hydrogelation) ([1]; buffer 1X PBS) | Conc. (hydrogelation concentration) ([1]; buffer 1X PBS) [wt%] | gelation outcome / gel appearance ([1]; in water, pH adjusted (2–12)) |
| --- | --- | --- | --- | --- | --- | --- | --- |
| FFFVF‐NH2 [compound 322, self-assembling peptide FFFVF‐NH2] | 7.0 | 1.0 | 21,393 Pa | approximately 14 nm | – | – | – |
| FYGVF‐NH2 [compound 166, self-assembling peptide FYGVF‐NH2] | 7.0 | 0.5 | – | ~25 nm | – | – | – |
| VKVKAFIDDK [compound 560, self-assembling peptide […]] | – | – | – | – | 8.0 | 1.0 | – |
| EYVRFF [compound 368, self-assembling peptide EYVRFF] | – | – | – | – | 3.0 | 1.0 | opaque hydrogel |
| NC(=O)[C@H](Cc1ccccc1)NC(=O)[C@H](CC(=O)O)NC(=O)CNC(=O)[C@H](CCC(=O)O)NC(=O)[C@H](Cc1ccccc1)NC(=O)[C@H](CCC(=O)O)NC(=O)[C@@H](N)Cc1c[nH]c2ccccc12 [compound 16] (H-WEFEGDF-NH2; N-terminus assumed) | – | – | 1254 Pa | 9–10 nm | 5.0 | 1.0 | – |
